{"source": "paper PMC6911266", "about": "(Nature, 2019)", "assay_type_in_all_cases": "cell-based, Plasmodium falciparum", "key": {"[1]": {"test_system": "P. falciparum 7G8^7G8+F145I parasite line", "experiment": "Piperaquine survival assay", "conditions": "vs no-drug control"}, "[2]": {"test_system": "P. falciparum 7G8^7G8+C350R parasite line", "experiment": "Piperaquine survival assay", "conditions": "vs no-drug control"}, "[3]": {"test_system": "P. falciparum ring-stage parasites", "experiment": "Piperaquine survival assay, summary in text"}}, "data": [{"compound": "Clc1ccc2c(N3CCN(CCCN4CCN(c5ccnc6cc(Cl)ccc56)CC4)CC3)ccnc2c1", "note": "[PPQ, piperaquine]", "values": [{"measurement": "PSA 3.125 nM, percent survival", "setting": "[1]; 3.125 nM PPQ 48 h", "value": "95.7 ± 3.1", "unit": "%"}, {"measurement": "PSA 6.25 nM, percent survival", "setting": "[1]; 6.25 nM PPQ 48 h", "value": "83.4 ± 4.5", "unit": "%"}, {"measurement": "PSA 12.5 nM, percent survival", "setting": "[1]; 12.5 nM PPQ 48 h", "value": "62.3 ± 4.1", "unit": "%"}, {"measurement": "PSA 25 nM, percent survival", "setting": "[1]; 25 nM PPQ 48 h", "value": "44.5 ± 2.4", "unit": "%"}, {"measurement": "PSA 50 nM, percent survival", "setting": "[1]; 50 nM PPQ 48 h", "value": "8.5 ± 1.2", "unit": "%"}, {"measurement": "PSA 200 nM, percent survival", "setting": "[1]; 200 nM PPQ 48 h", "value": "8.6 ± 2.4", "unit": "%"}, {"measurement": "PSA 400 nM, percent survival", "setting": "[1]; 400 nM PPQ 48 h", "value": "12.7 ± 2.5", "unit": "%"}, {"measurement": "PSA 800 nM, percent survival", "setting": "[1]; 800 nM PPQ 48 h", "value": "13.1 ± 3.9", "unit": "%"}, {"measurement": "PSA 1600 nM, percent survival", "setting": "[1]; 1600 nM PPQ 48 h", "value": "14.7 ± 4.2", "unit": "%"}, {"measurement": "PSA 3.125 nM, percent survival", "setting": "[2]; 3.125 nM PPQ 48 h", "value": "96.6 ± 2.4", "unit": "%"}, {"measurement": "PSA 6.25 nM, percent survival", "setting": "[2]; 6.25 nM PPQ 48 h", "value": "90.7 ± 5.1", "unit": "%"}, {"measurement": "PSA 12.5 nM, percent survival", "setting": "[2]; 12.5 nM PPQ 48 h", "value": "79.8 ± 5.5", "unit": "%"}, {"measurement": "PSA 25 nM, percent survival", "setting": "[2]; 25 nM PPQ 48 h", "value": "62.1 ± 9.6", "unit": "%"}, {"measurement": "PSA 50 nM, percent survival", "setting": "[2]; 50 nM PPQ 48 h", "value": "31.8 ± 9.3", "unit": "%"}, {"measurement": "PSA 100 nM, percent survival", "setting": "[2]; 100 nM PPQ 48 h", "value": "7.7 ± 2.5", "unit": "%"}, {"measurement": "PSA 200 nM, percent survival", "setting": "[2]; 200 nM PPQ 48 h", "value": "9.5 ± 1.2", "unit": "%"}, {"measurement": "PSA 400 nM, percent survival", "setting": "[2]; 400 nM PPQ 48 h", "value": "10.5 ± 1.1", "unit": "%"}, {"measurement": "PSA 800 nM, percent survival", "setting": "[2]; 800 nM PPQ 48 h", "value": "6.6 ± 0.46", "unit": "%"}, {"measurement": "PSA 1600 nM, percent survival", "setting": "[2]; 1600 nM PPQ 48 h", "value": "5.9 ± 0.9", "unit": "%"}, {"measurement": "survival in PPQ survival assay", "setting": "[3]; PPQ-S parasites, concentrations of 200 nM or more", "value": "≤ 1", "unit": "%"}, {"measurement": "survival in PPQ survival assay", "setting": "[3]; standard assay concentration of 200 nM PPQ, 48 h, edited 7G8+F145I and 7G8+C350R lines (Fig. 3l)", "value": "9–10%"}]}]}
